{"source": "patent US5122448A", "about": "“Assay of anti-Epstein-Barr virus nuclear antigen antibodies with synthetic polypeptides” (Scripps Clinic and Research Foundation, priority 1990, dated 1992)", "key": {"[1]": {"target": "human anti-EBNA antibodies", "test": "ELISA: inhibition of serum antibody binding to solid phase P62 by competing polypeptide in solution", "method": "(§1) Anti-peptide antibody binding and inhibition studies were carried out by an enzyme-linked immunosorbent assay (ELISA) as described below.\n(§2) Contact between the wells and antigen-containing solution was maintained for a predetermined time, typically 15 minutes, and at 20 degrees C., to form an antigen-coated solid phase. The solid and liquid phases were separated and the wells were washed three times with BBS.\n(§3) Rabbit and human sera (body sample aliquots) were assayed for anti-polypeptide activity by adding 100 microliters of a serum diluted 1:20 in BBS per well to form a solid/liquid phase composition. Contact between the diluted sera and the antigen-coated solid phase was maintained for a predetermined time such as 1 hour, and at 20 degrees C., for an immunoreactant to form. The solid and liquid phases were separated, and the solid phase; i.e., antigen-coated, immunoreactant-containing wells, was then washed three times with BBS."}, "[2]": {"tested_on": "rabbit anti-polypeptide antibody to polypeptide P62", "test": "Competition ELISA with rabbit anti-polypeptide P62 antibody on solid phase P62", "assay_type": "binding", "conditions": "antibody first incubated with competing polypeptide", "method": "as §1, §2, §3"}, "EBNA": {"tested_on": "EBNA", "test": "Immunoblot of WI-L2 whole cell extracts with rabbit antipeptide antisera, blocking by polypeptide", "assay_type": "binding, Epstein-Barr virus", "conditions": "serum 1:10, 40 ug/ml polypeptide P62, one hour", "method": "Exemplary receptor molecules containing antibody combining sites of this invention raised in rabbits to the polypeptides shown in Table 1 were studied using the immunoblotting procedures of Towbin, et. al., Proc. Natl. Acad. Sci., U.S.A., 76:4350-4354 (1979) and Billings, et. al., Proc. Natl. Acad. Sci., U.S.A., 80:7104-7108 (1983). Further details are provided in the Materials and Methods section (III).\nExtracts of EBNA producing and non-producing (control) cells were prepared to determine if receptor molecules of this invention were useful for diagnosing EBNA expression. Cells from cultures described hereinabove were washed in phosphate-buffered saline (PBS; 150 mM NaCl, 10 mM sodium phosphate, pH 7.4) containing 0.2 mM phenylmethylsulfonyl fluoride, swollen for 5 minutes in reticulocyte standard buffer (RSB; 10 mM NaCl, 10 mM Tris-HCl, pH 7.4, 1.5 mM MgCl2, 0.2 mM phenylmethylsulfonyl fluoride), and lysed by sonication in 3-5 volumes of RBS adjusted to 0.2-0.35 molar (M) NaCl. After 30 minutes on ice, the sonicate was centrifuged at 10,000×g for 15 minutes to remove cellular debris.\nCell extracts obtained above were assayed for EBNA using human sera known to contain anti-EBNA antibodies or exemplary receptor molecules of this invention. The extracts were either concentrated by precipitation with 2 volumes of ethanol at -20 degrees C. for about 18 hours, and were then dissolved in sample buffer [SB; 10% glycerol, 2% 2-mercaptoethanol, 1% sodium dodecyl sulfate (SDS), 0.002% bromphenol blue, 40 mM Tris-HCl (pH 7.4)] or diluted 1:6 in sample buffer for SDS-polyacrylamide gel electrophoresis (SDS-PAGE). 7.5% Polyacrylamide gels were cast and run according to the procedure of Laemmli, Nature, […] (1970), applying 50 to 200 micrograms of total protein per lane. […]\nAnti-peptide antibodies bound to EBNA protein were detected by reacting the blots with an indicating means. […]"}, "[3]": {"tested_on": "anti-EBNA antibodies (IgG, IgM, IgA)", "description": "Additional assays utilized in these studies wherein IgG to IgM ratios were determined to assess the state of EBV-induced disease were carried out as described in Smith et al., J. Infect. Dis., 154:885-889 (1986) and Geltosky et al., J. Clin Lab Analysis, 1:153-162 (1987).\nThe solution was thereafter discarded and the plates were blocked with 300 ul of 10 percent normal goat serum in phosphate-buffered saline (PBS) at pH 7.3. After 90 minutes of maintenance (incubation) at 37 degrees C., the wells were emptied and dried for 60 minutes at 37 degrees C.\nAt this time, 200 ul of 10 percent goat serum in PBS were added to the wells. A volume of 10 ul of patient specimen serum was admixed to each goat serum-containing well to form a solid/liquid phase admixture. That admixture was maintained for a time period of one hour at room temperature to permit binding of any antibodies present to the solid support and form a solid phase-bound immunoreactant containing those antibodies.\nAfter washing five times with 350 ul of 0.05% Tween-20 [polyoxyethylene (20) sorbitan monolaurate] in PBS to effect separation of the solid and liquid phases, a solution of 200 ul of horseradish peroxidase-(HRPO-) conjugated mouse monoclonal antibody to human IgG or IgM (Ortho Diagnostic Systems, Raritan, N.J.) was admixed to each well to form a second solid/liquid phase admixture. This second solid/liquid admixture was maintained for another one hour time period to permit the enzyme-linked antibodies to bind to any solid phase-bound antibodies formed in the first solid/liquid phase admixture.\nAfter separation of the solid and liquid phases, and washing of the solid phase five times using the Tween-20/PBS solution, above, color was developed by admixture of o-phenylenediamine (OPD; 2 mg of a citrate-buffered tablet dissolved in 3 ml of water; Pitman-Moore, Washington Crossing, N.J.) and hydrogen peroxide. The resulting solution was maintained for 30 minutes at room temperature. The reaction was stopped by admixture of 50 ul of 2N HCl, and the absorbance was determined at 490 nanometers (nm).\npositive control ratio =reference absorbance value/mean absorbance of positive control.\nThe positive control was assigned a reference absorbance value (O.D.) of 1.0. […] The absorbance value for the controls and for each test specimen were multiplied by the positive control ratio to achieve a standardized ELISA value. Cutoff values (mean OD+SD) have been previously described [Geltosky et al. J. Clin. Lab. Analysis, 1:153-162 (1987)]. […] Absorbance values less than 0.7 were considered to represent an acute infection due to EBV [Smith et al., J Infect Dis., 154:885-889 (1986)]."}, "[4]": {"conditions": "acute IM Patient 1, 1 days post onset"}, "[5]": {"conditions": "acute IM Patient 1, 29 days post onset"}, "[6]": {"conditions": "acute IM Patient 1, 95 days post onset"}, "[7]": {"conditions": "acute IM Patient 1, 184 days post onset"}, "[8]": {"conditions": "acute IM Patient 1, 373 days post onset"}, "[9]": {"conditions": "acute IM Patient 2, 17 days post onset"}, "[10]": {"conditions": "acute IM Patient 2, 28 days post onset"}, "[11]": {"conditions": "acute IM Patient 2, 68 days post onset"}, "[12]": {"conditions": "acute IM Patient 2, 194 days post onset"}, "[13]": {"conditions": "acute IM Patient 2, 404 days post onset"}, "[14]": {"conditions": "acute IM Patient 8, 8 days post onset"}, "[15]": {"conditions": "acute IM Patient 8, 38 days post onset"}, "[16]": {"conditions": "acute IM Patient 8, 109 days post onset"}, "[17]": {"conditions": "acute IM Patient 8, 404 days post onset"}, "[18]": {"conditions": "acute IM Patient 11, 2 days post onset"}, "[19]": {"conditions": "acute IM Patient 11, 23 days post onset"}, "[20]": {"conditions": "acute IM Patient 11, 372 days post onset"}, "[21]": {"conditions": "acute IM Patient 11, 1,519 days post onset"}}, "note": "Where two headings read alike, the source gives them in different places. Residues, ends and D or L forms follow the SMILES beside them.", "data": [{"smiles": "C[C@H](N)C(=O)NCC(=O)N[C@@H](C)C(=O)NCC(=O)NCC(=O)NCC(=O)N[C@@H](C)C(=O)NCC(=O)NCC(=O)N[C@@H](C)C(=O)NCC(=O)N[C@@H](C)C(=O)NCC(=O)NCC(=O)NCC(=O)N[C@@H](C)C(=O)NCC(=O)NCC(=O)N[C@@H](C)C(=O)NCC(=O)O", "note": "[Polypeptide P62, H--Ala--Gly--Ala--Gly--Gly--Gly--Ala--Gly--Gly--Ala--Gly--Ala--Gly--Gly--Gly--Ala--Gly--Gly--Ala--Gly--OH] (H-AGAGGGAGGAGAGGGAGGAG-OH)", "values": [{"measurement": "Concentration of Competing Polypeptides Providing 50% Inhibition of Antibody Binding to Peptide P62", "setting": "[1]; serum N6", "value": 0.6, "unit": "micrograms per milliliter"}, {"measurement": "Concentration of Competing Polypeptides Providing 50% Inhibition of Antibody Binding to Peptide P62", "setting": "[1]; serum TJ", "value": 0.05, "unit": "micrograms per milliliter"}, {"measurement": "Concentration of Competing Polypeptides Providing 50% Inhibition of Antibody Binding to Peptide P62", "setting": "[1]; serum VM", "value": 0.3, "unit": "micrograms per milliliter"}, {"measurement": "Inhibition of binding of anti-polypeptide P62 to polypeptide P62 in the solid phase", "setting": "[2]", "value": 98, "unit": "%"}, {"measurement": "Recognition of EBNA by anti-P62 serum after preincubation with polypeptide", "setting": "EBNA", "value": "inhibited"}, {"measurement": "IgM anti-peptide P62 antibodies during acute phase of CMV disease", "setting": "[3]; 10 patients with CMV-IM", "value": "All 10 patients showed a pronounced increase"}, {"measurement": "Sera positive for NPC in IgA anti-P62 assay", "setting": "[3]; 13 sera from NPC patients", "value": "10 of 13"}, {"measurement": "IgA level", "setting": "[3]; Heterophil-Positive Sera marked with footnote 2 (samples 2 and 6)", "value": "> 0.300", "unit": "OD 490"}, {"measurement": "IgG OD 490", "setting": "[3]; [4]", "value": 0.011, "unit": "OD 490"}, {"measurement": "IgM OD 490", "setting": "[3]; [4]", "value": 0.189, "unit": "OD 490"}, {"measurement": "Ratio IgG/IgM", "setting": "[3]; [4]", "value": 0.058}, {"measurement": "IgG OD 490", "setting": "[3]; [5]", "value": 0.023, "unit": "OD 490"}, {"measurement": "IgM OD 490", "setting": "[3]; [5]", "value": 0.527, "unit": "OD 490"}, {"measurement": "Ratio IgG/IgM", "setting": "[3]; [5]", "value": 0.043}, {"measurement": "IgG OD 490", "setting": "[3]; [6]", "value": 0.162, "unit": "OD 490"}, {"measurement": "IgM OD 490", "setting": "[3]; [6]", "value": 0.329, "unit": "OD 490"}, {"measurement": "Ratio IgG/IgM", "setting": "[3]; [6]", "value": 0.492}, {"measurement": "IgG OD 490", "setting": "[3]; [7]", "value": 0.552, "unit": "OD 490"}, {"measurement": "IgM OD 490", "setting": "[3]; [7]", "value": 0.245, "unit": "OD 490"}, {"measurement": "Ratio IgG/IgM", "setting": "[3]; [7]", "value": 2.253}, {"measurement": "IgG OD 490", "setting": "[3]; [8]", "value": 0.858, "unit": "OD 490"}, {"measurement": "IgM OD 490", "setting": "[3]; [8]", "value": 0.152, "unit": "OD 490"}, {"measurement": "Ratio IgG/IgM", "setting": "[3]; [8]", "value": 5.644}, {"measurement": "IgG OD 490", "setting": "[3]; [9]", "value": 0.125, "unit": "OD 490"}, {"measurement": "IgM OD 490", "setting": "[3]; [9]", "value": 0.682, "unit": "OD 490"}, {"measurement": "Ratio IgG/IgM", "setting": "[3]; [9]", "value": 0.183}, {"measurement": "IgG OD 490", "setting": "[3]; [10]", "value": 0.167, "unit": "OD 490"}, {"measurement": "IgM OD 490", "setting": "[3]; [10]", "value": 0.674, "unit": "OD 490"}, {"measurement": "Ratio IgG/IgM", "setting": "[3]; [10]", "value": 0.247}, {"measurement": "IgG OD 490", "setting": "[3]; [11]", "value": 0.112, "unit": "OD 490"}, {"measurement": "IgM OD 490", "setting": "[3]; [11]", "value": 0.459, "unit": "OD 490"}, {"measurement": "Ratio IgG/IgM", "setting": "[3]; [11]", "value": 0.244}, {"measurement": "IgG OD 490", "setting": "[3]; [12]", "value": 0.233, "unit": "OD 490"}, {"measurement": "IgM OD 490", "setting": "[3]; [12]", "value": 0.596, "unit": "OD 490"}, {"measurement": "Ratio IgG/IgM", "setting": "[3]; [12]", "value": 0.390}, {"measurement": "IgG OD 490", "setting": "[3]; [13]", "value": 0.674, "unit": "OD 490"}, {"measurement": "IgM OD 490", "setting": "[3]; [13]", "value": 0.665, "unit": "OD 490"}, {"measurement": "Ratio IgG/IgM", "setting": "[3]; [13]", "value": 1.013}, {"measurement": "IgG OD 490", "setting": "[3]; [14]", "value": 0.319, "unit": "OD 490"}, {"measurement": "IgM OD 490", "setting": "[3]; [14]", "value": 1.046, "unit": "OD 490"}, {"measurement": "Ratio IgG/IgM", "setting": "[3]; [14]", "value": 0.305}, {"measurement": "IgG OD 490", "setting": "[3]; [15]", "value": 0.165, "unit": "OD 490"}, {"measurement": "IgM OD 490", "setting": "[3]; [15]", "value": 0.696, "unit": "OD 490"}, {"measurement": "Ratio IgG/IgM", "setting": "[3]; [15]", "value": 0.237}, {"measurement": "IgG OD 490", "setting": "[3]; [16]", "value": 0.141, "unit": "OD 490"}, {"measurement": "IgM OD 490", "setting": "[3]; [16]", "value": 0.603, "unit": "OD 490"}, {"measurement": "Ratio IgG/IgM", "setting": "[3]; [16]", "value": 0.234}, {"measurement": "IgG OD 490", "setting": "[3]; [17]", "value": 1.304, "unit": "OD 490"}, {"measurement": "IgM OD 490", "setting": "[3]; [17]", "value": 0.562, "unit": "OD 490"}, {"measurement": "Ratio IgG/IgM", "setting": "[3]; [17]", "value": 2.320}, {"measurement": "IgG OD 490", "setting": "[3]; [18]", "value": 0.005, "unit": "OD 490"}, {"measurement": "IgM OD 490", "setting": "[3]; [18]", "value": 0.055, "unit": "OD 490"}, {"measurement": "Ratio IgG/IgM", "setting": "[3]; [18]", "value": 0.091}, {"measurement": "IgG OD 490", "setting": "[3]; [19]", "value": 0.016, "unit": "OD 490"}, {"measurement": "IgM OD 490", "setting": "[3]; [19]", "value": 0.702, "unit": "OD 490"}, {"measurement": "Ratio IgG/IgM", "setting": "[3]; [19]", "value": 0.023}, {"measurement": "IgG OD 490", "setting": "[3]; [20]", "value": 0.878, "unit": "OD 490"}, {"measurement": "IgM OD 490", "setting": "[3]; [20]", "value": 0.643, "unit": "OD 490"}, {"measurement": "Ratio IgG/IgM", "setting": "[3]; [20]", "value": 1.365}, {"measurement": "IgG OD 490", "setting": "[3]; [21]", "value": 1.079, "unit": "OD 490"}, {"measurement": "IgM OD 490", "setting": "[3]; [21]", "value": 0.199, "unit": "OD 490"}, {"measurement": "Ratio IgG/IgM", "setting": "[3]; [21]", "value": 5.422}, {"measurement": "IgG/IgM ratio", "setting": "[3]; patient five (EBV-IM), May 1985 specimen, late convalescent phase", "value": "exceeded 0.7"}, {"measurement": "IgG/IgM ratio", "setting": "[3]; patient one (CMV-IM), during the acute illness", "value": 0.661}, {"measurement": "IgG/IgM ratio", "setting": "[3]; patient one (CMV-IM), pre-illness samples", "value": "~2"}, {"measurement": "Patients scored positive in the EBNA P62 ELISA by the ratio analysis", "setting": "[3]; ten patients with acute CMV-IM infection", "value": "eight of ten"}]}]}
